Measurements: patent US6884808B2, “Heterocycle-containing carboxylic acid derivative and drug containing the same” (Eisai Co. Ltd., priority 1995, dated 2005)
pIC50: −log10 of the molar value.

Tests used:
[1] = target: T1, Retinoic acid receptor: RAR (Homo sapiens, UniProt P10276); assay: Receptor binding assay by using human promyelocytic leukemia cells HL60 (nucleus-extracted fraction, 3H-all-trans retinoic acid); details: 50% inhibition concentration of 3H-all-trans retinoic acid binding, 4° C. for 16 hours
T1 construct: using a fraction extracted from the nucleus of HL60; endogenous in cells; host or cells: HL60 cells, nucleus-extracted fraction (0.4 M KCl extract, 100,000 x g supernatant)
T1 sequence (P10276 1-462): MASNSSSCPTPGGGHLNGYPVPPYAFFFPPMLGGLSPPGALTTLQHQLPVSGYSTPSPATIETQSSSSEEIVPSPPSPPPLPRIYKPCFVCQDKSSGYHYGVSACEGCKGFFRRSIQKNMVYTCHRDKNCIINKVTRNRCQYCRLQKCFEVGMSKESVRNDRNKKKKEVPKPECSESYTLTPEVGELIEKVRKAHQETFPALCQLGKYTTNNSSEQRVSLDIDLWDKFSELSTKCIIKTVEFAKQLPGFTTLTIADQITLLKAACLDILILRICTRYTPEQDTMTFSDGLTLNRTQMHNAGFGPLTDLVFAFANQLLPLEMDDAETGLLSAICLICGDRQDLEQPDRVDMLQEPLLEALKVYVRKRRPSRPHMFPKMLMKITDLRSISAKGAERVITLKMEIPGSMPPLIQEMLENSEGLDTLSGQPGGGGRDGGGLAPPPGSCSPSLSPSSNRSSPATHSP
Experimental: Receptor binding assay by using human promyelocytic leukemia cells HL60
The nucleus-extracted fraction was prepared as described below.
In 15 ml of Solution A [5 mM sodium phosphate (pH 7.4), 10 mM monothioglycerol, 10% v/v glycerol, 1 mM phenylmethyl sulfonyl fluoride (PMSF), 10 μg/ml of aprotinin and 25 μg/ml of leupeptin], HL60 cells (5×10^8) were suspended. The resulting suspension was homogenized, followed by centrifugal separation to remove the supernatant. The precipitate so obtained was suspended in 15 ml of Solution B [10 mM tris-HCl (Tris-HCl) (pH 8.5), 10 mM monothioglycerol, 10% (v/v) glycerol, 1 mM PMSF, 10 μg/ml aprotinin, 25 μg/ml leupeptin and 0.4 M KC1]. After being allowed to stand at 4° C. for one hour, the resulting suspension was subjected to ultracentrifugation at 100,000 xg and 4° C. for one hour.
Receptor binding assay was carried out as follows:
The resulting mixture was allowed to stand at 4° C. for 16 hours. […] The count of the supernatant was determined by a scintillation counter.

[2] = test system: HL60 cells; assay: Differentiation and induction effects on HL60 cells (CD11b positive cells, flow cytometry); type: cell-based; details: Homo sapiens, HL-60, 120 h; concentration at which the existing ratio of CD11b positive cells becomes 33%; cultivation for 5 days; read-out: Differentiation and induction effects of HL60 cells ED1/3
Text: Differentiation and Induction Effects on HL60 Cells
It is known that human-derived promyelocytic leukemia cell strains HL60 differentiate into the corresponding granulocytic cells in the presence of all-trans retinoic acid [Breitman, T. Selonick., S. and Colling, S. Proc. Natl. Acad. Sci., 77, 2936(1980)]. In general, cells after differentiation have come to express specific differentiated antigens on their surface. When the HL60 cells are differentiated into granulocytic cells, CD11b which is a differential antigen between granulocytes and monocytes is expressed on the surface of the cells [Fontana, J A., Reppuci, A. Durham, J P. and Mirand, D. Cancer Res. 46, 2469-2473(1986)]. Effects of the invention compound on the differentiation and induction into granulocyte cells were studied by making use of the above-described phenomenon.
HL60 cells were cultured and kept in RPMI 1640 (a medium formulated by Rosewell Park Memorial Institute) to which 10% bovine fetal serum, 1 mM sodium […], 50 μM β-mercaptoethanol, 100 IU/ml of penicillin and 100 μg/ml of streptomycin had been added.
On each well of a 24-well plate, a 1 ml portion of the suspension containing HL60 in an amount of 1×10^5 […] was seeded. The invention compound was then added thereto at varied concentrations, followed by cultivation for 5 days in a 5% CO2-air incubator. After cultivation, the cells of each well were collected in a test tube, to which an FITC-labeled monoclonal antibody against Cd11b, that is, a granulocyte-monocyte specific antigen was added. The cells were then immobilized with 0.2% paraformaldehyde. The existing ratio of CD11b positive cells in the vial HL60 cell group present in each well was determined using flow cytometry [Miller, L J., Schwarting, R. and Springer, T A. J. Immunol. 137, 2891-2900(1986)]. The existing ratios of CD11b positive cells-of-compounds which will be described below were increased according to the concentration. The concentration at which the existing ratio of the positive cells becomes 33% is defined as ED1/3.

SMILES | melting point | pIC50 [1] | EC (33% CD11b positive cells) [2] [µM]
CC1(C)CC(C)(C)c2nc(-c3cc(-c4ccc(C(=O)O)cc4)c[nH]3)cnc21 [Example 28, 4-[4-[2-[2-(5,5,7,7-Tetramethylcyclopenta[b]pyrazinyl)]pyrrolyl]]benzoic acid] | 145 to 147 °C | – | –
CCn1cc(-c2ccc(C(=O)O)cc2)cc1-c1cnc(C(C)C)c(C(C)C)n1 [Example 36, 4-[4-[2-[2-(5,6-Diisopropylpyrazinyl)]-1-ethylpyrrolyl]]benzoic acid] | 272 to 274 °C | – | –
CC1(C)CCC(C)(C)c2nc(-c3ccc(-c4ccc(C(=O)O)cc4)[nH]3)cnc21 [Compound of Ex. 6, 4-[2-[5-[2-(5,6,7,8-Tetrahydro-5,5,8,8-tetramethylquinoxalyl)]pyrrolyl]]benzoic acid] | – | 8.80 | 5.6e-05
CC(C)c1ncc(-c2cc(-c3ccc(C(=O)O)cc3)c[nH]2)nc1C(C)C [Example 27, 4-[4-[2-[2-(5,6-Diisopropylpyrazinyl)]pyrrolyl]]benzoic acid] | 245 °C (dec.) | – | –
Cc1sc(-c2cnc3c(n2)C(C)(C)CCC3(C)C)cc1-c1ccc(C(=O)O)cc1 [Example 32, 4-[3-[5-[2-(5,6,7,8-Tetrahydro-5,5,8,8-tetramethylquinoxalyl)]-2-methylthienyl]]benzo acid] | 215 to 217 °C | – | –
CC(C)n1cc(-c2ccc(C(=O)O)cc2)cc1-c1cnc2c(n1)C(C)(C)CCC2(C)C [Example 33, 4-[4-[2-[2-(5,6,7,8-tetrahydro-5,5,8,8-tetramethylquinoxalyl)]-1-isopropylpyrrolyl]]benzoic acid] | 225 to 227 °C | – | –
CC(C)c1cc(-c2ccc(-c3ccc(C(=O)O)cc3)[nH]2)nn1C(C)(C)C [Compound of Ex. 99, 4-{2-{5-[3-(1-tert-Butyl-5-isopropylpyrazolyl)]pyrrolyl}}benzoic acid] | – | 8.47 | 4.7e-05
Cc1c(-c2ccc(C(=O)O)cc2)cc(-c2cnc3c(n2)C(C)(C)CCC3(C)C)n1C [Example 37] | 265 to 267 °C | – | –
CC(C)c1ncc(-c2cc(-c3ccc(C(=O)O)cc3)co2)nc1C(C)C [Example 38, 4-[4-[2-[2-(5,6-Diisopropylpyrazinyl)]furyl]]benzoic acid] | 215 to 218 °C | – | –
CC1=C(/C=C/C(C)=C/C=C/C(C)=C/C(=O)O)C(C)(C)CCC1 [All-trans-retinoic acid, reference compound] | – | – | 0.0018
Cn1cc(-c2ccc(C(=O)O)cc2)cc1-c1cnc2c(n1)C(C)(C)CC2(C)C [Example 35, 4-[4-[2-[2-(5,5,7,7-Tetramethylcyclopenta[b]pyrazinyl)]-1-methylpyrrolyl]]benzoic acid] | 250 °C (dec.) | – | –
CC1(C)CC(C)(C)c2nc(-c3cc(-c4ccc(C(=O)O)cc4)cs3)cnc21 [Example 31, 4-[4-[2-[2-(5,5,7,7-Tetramethylcyclopenta[b]pyrazinyl)]thienyl]]benzoic acid] | 222 °C (dec.) | – | –
CC(C)c1ncc(-c2cc(-c3ccc(C(=O)O)cc3)cs2)nc1C(C)C [Example 30, 4-[4-[2-[2-(5,6-Diisopropylpyrazinyl)]thienyl]]benzoic acid] | 226 to 229 °C | – | –
Cc1[nH]c(-c2cnc3c(n2)C(C)(C)CCC3(C)C)cc1-c1ccc(C(=O)O)cc1 [Example 29, 4-[3-[5-[2-(5,6,7,8-Tetrahydro-5,5,8,8-tetramethylquinoxalyl)]-2-methylpyrrolyl]]benzoic acid] | 248 to 250 °C | – | –

The next lines start with results.

melting point | pIC50 [1] | SMILES | EC (33% CD11b positive cells) [2] [µM]
238 to 240 °C | – | CC1(C)CC(C)(C)c2nc(-c3ccc(-c4ccc(C(=O)O)cc4)o3)cnc21 [Example 49, 4-[2-[5-[2-(5,5,7,7-Tetramethylcyclopenta[b]pyrazinyl)]-furyl]]benzoic acid] | –
275 °C (dec.) | – | CC1(C)CC(C)(C)c2nc(-c3ccc(-c4ccc(C(=O)O)cc4)s3)cnc21 [Example 47, 4-[2-[5-[2-(5,5,7,7-Tetramethylcyclopenta[b]pyrazinyl)]-thienyl]]benzoic acid] | –
250 to 252 °C | – | CC1(C)CC(C)(C)c2nc(-c3cc(-c4ccc(C(=O)O)cc4)co3)cnc21 [Example 39, 4-[4-[2-[2-(5,5,7,7-Tetramethylcyclopenta[b]pyrazinyl)]-furyl]]benzoic acid] | –
278 °C (dec.) | – | CC1(C)CCC(C)(C)c2nc(-c3ccc(-c4ccc(C(=O)O)cn4)[nH]3)cnc21 [Example 45, 6-[2-[5-[2-(5,6,7,8-Tetrahydro-5,5,8,8-tetramethylquinoxalyl)]pyrrolyl]]nicotinic acid] | –
257 to 259 °C | – | CC1(C)CCC(C)(C)c2nc(C(=O)Nc3ccc(C(=O)O)cc3)cnc21 [Example 88, 4-(5,6,7,8-Tetrahydro-5,5,8,8-tetramethyl-2-quinoxalinecarbamoyl)benzoic acid] | –
236 to 238 °C | – | CC1(C)CC(C)(C)c2nc(C(=O)Nc3ccc(C(=O)O)cc3)cnc21 [Example 89, 4-(5,5,7,7-Tetramethyl-2-cyclopenta[b]pyrazinecarbamoyl)benzoic acid] | –
263 to 266 °C | – | CC1(C)CCC(C)(C)c2nc(-c3cc(-c4ccc(C(=O)O)cc4)cn3Cc3cccnc3)cnc21 [Example 41, 4-[4-[2-[2-(5,6,7,8-tetrahydro-5,5,8,8-tetramethylquinoxalyl)]-1-(3-pyridylmethyl)pyrrolyl]]benzoic acid] | –
260 to 262 °C | – | CC(C)c1ncc(-c2ccc(-c3ccc(C(=O)O)cc3)o2)nc1C(C)C [Example 48, 4-[2-[5-[2-(5,6-Diisopropropylpyrazinyl)]furyl]]benzoic acid] | –
218 to 220 °C | – | Cn1c(-c2ccc(C(=O)O)cc2)ccc1-c1cnc2c(n1)C(C)(C)CC2(C)C [Example 50, 4-[2-[5-[2-(5,5,7,7-Tetramethylcyclopenta[b]pyrazinyl)]-1-methylpyrrolyl]]benzoic acid] | –
215 °C (dec.) | – | CC(C)c1ncc(-c2ccc(-c3ccc(C(=O)O)cc3)n2C(C)C)nc1C(C)C [Example 51, 4-[2-[5-[2-(5,6-Diisopropylpyrazinyl)]-1-isopropylpyrrolyl]]benzoic acid] | –
270 to 272 °C | – | CC(C)c1ncc(-c2ccc(-c3ccc(C(=O)O)cc3)s2)nc1C(C)C [Example 46, 4-[2-[5-[2-(5,6,-Diisopropylpyrazinyl)]thienyl]]benzoic acid] | –
270 to 272 °C | – | Cc1oc(-c2cnc3c(n2)C(C)(C)CCC3(C)C)cc1-c1ccc(C(=O)O)cc1 [Example 40, 4-[3-[5-[2-(5,6,7,8-Tetrahydro-5,5,8,8-tetramethylquinoxalyl)]-2-methylfuryl]]benzoic acid] | –
248 to 250 °C | – | O=C(O)c1ccc(NC(=O)c2cnc(C3CCCC3)c(C3CCCC3)n2)cc1 [Example 90, 4-(2,3-Dicyclopentyl-2-pyrazinecarbamoyl)benzoic acid] | –
182 to 184 °C | – | CC(C)c1nnc(C(=O)Nc2ccc(C(=O)O)cc2)nc1C(C)C [Example 91, 4-(5,6-Diisopropyl-3-[1,2,4]triazinecarbamoyl)benzoic acid] | –
